Legend:
Format in all cases: in vivo
[1] = test system: Foxtail, Giant (giant foxtail, Setaria faberi); assay: Test A postemergence, Foxtail, Giant; conditions: Postemergence, 0 to 100 scale (0 no effect, 100 complete control); for Plant response rating, Foxtail, Giant: 125 g ai/ha, visual injury approx. 10 days; for Foxtail, Giant plant response rating: 500 g ai/ha, visual injury vs untreated controls after approx. 10 days
Procedure, shortened: (§1)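 Greenhouse pot test in a loam–sand blend; compounds delivered in a non-phytotoxic solvent carrying a surfactant, applied either as a directed spray to soil at seeding or over seedlings 2 to 10 cm high with one to two leaves.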

[2] = test system: barnyardgrass (Echinochloa crus-galli); assay: Test A postemergence, barnyardgrass; conditions: Postemergence, 0 to 100 scale (0 no effect, 100 complete control); for Plant response rating, Barnyardgrass: 125 g ai/ha, visual injury approx. 10 days; for Barnyardgrass plant response rating: 500 g ai/ha, visual injury vs untreated controls after approx. 10 days
Procedure, shortened: as §1

[3] = test system: Ryegrass, Italian (Italian ryegrass, Lolium multiflorum); assay: Test A preemergence, Ryegrass, Italian; conditions: Preemergence; for Ryegrass, Italian plant response rating: 125 g ai/ha, visual injury on 0 to 100 scale (0 no effect, 100 complete control), approximately 10 days; for Plant response rating, Ryegrass, Italian: 500 g ai/ha, 0 to 100 scale (0 no effect, 100 complete control)
Procedure, shortened: as §1

[4] = test system: galium (catchweed bedstraw, Galium aparine); assay: Test A postemergence, galium; conditions: Postemergence, 0 to 100 scale (0 no effect, 100 complete control); for Plant response rating, Galium: 125 g ai/ha, visual injury approx. 10 days; for Galium plant response rating: 500 g ai/ha, visual injury vs untreated controls after approx. 10 days
Procedure, shortened: as §1

kochia (Bassia scoparia) [5] = assay: Test A preemergence, kochia; conditions: Preemergence; for Kochia plant response rating: 125 g ai/ha, visual injury on 0 to 100 scale (0 no effect, 100 complete control), approximately 10 days; for Plant response rating, Kochia: 500 g ai/ha, 0 to 100 scale (0 no effect, 100 complete control)
Procedure, shortened: as §1

[6] = test system: pigweed (Amaranthus retroflexus); assay: Test A preemergence, pigweed; conditions: for Pigweed plant response rating: 125 g ai/ha, visual injury on 0 to 100 scale (0 no effect, 100 complete control), approximately 10 days; for Plant response rating, Pigweed: 500 g ai/ha, 0 to 100 scale (0 no effect, 100 complete control)
Procedure, shortened: as §1

corn (Zea mays) = assay: Test A postemergence, corn; conditions: Postemergence, 0 to 100 scale (0 no effect, 100 complete control); for Plant response rating, Corn: 125 g ai/ha, visual injury approx. 10 days; for Corn plant response rating: 500 g ai/ha, visual injury vs untreated controls after approx. 10 days
Procedure, shortened: as §1

[7] = test system: ragweed (common ragweed, Ambrosia artemisiifolia); assay: Test A preemergence, ragweed; conditions: Preemergence; for Ragweed plant response rating: 125 g ai/ha, visual injury on 0 to 100 scale (0 no effect, 100 complete control), approximately 10 days; for Plant response rating, Ragweed: 500 g ai/ha, 0 to 100 scale (0 no effect, 100 complete control)
Procedure, shortened: as §1

[8] = test system: blackgrass (Alopecurus myosuroides); assay: Test A postemergence, blackgrass; conditions: Postemergence, 0 to 100 scale (0 no effect, 100 complete control); for Plant response rating, Blackgrass: 125 g ai/ha, visual injury approx. 10 days; for Blackgrass plant response rating: 500 g ai/ha, visual injury vs untreated controls after approx. 10 days
Procedure, shortened: as §1

[9] = test system: Foxtail, Giant (giant foxtail, Setaria faberi); assay: Test A preemergence, Foxtail, Giant; conditions: Preemergence; for Foxtail, Giant plant response rating: 125 g ai/ha, visual injury on 0 to 100 scale (0 no effect, 100 complete control), approximately 10 days; for Plant response rating, Foxtail, Giant: 500 g ai/ha, 0 to 100 scale (0 no effect, 100 complete control)
Procedure, shortened: as §1

[10] = test system: wheat (Triticum aestivum); assay: Test A postemergence, wheat; conditions: Postemergence, 0 to 100 scale (0 no effect, 100 complete control); for Plant response rating, Wheat: 125 g ai/ha, visual injury approx. 10 days; for Wheat plant response rating: 500 g ai/ha, visual injury vs untreated controls after approx. 10 days
Procedure, shortened: as §1

[11] = test system: barnyardgrass (Echinochloa crus-galli); assay: Test A preemergence, barnyardgrass; conditions: Preemergence; for Barnyardgrass plant response rating: 125 g ai/ha, visual injury on 0 to 100 scale (0 no effect, 100 complete control), approximately 10 days; for Plant response rating, Barnyardgrass: 500 g ai/ha, 0 to 100 scale (0 no effect, 100 complete control)
Procedure, shortened: as §1

[12] = test system: pigweed (Amaranthus retroflexus); assay: Test A postemergence, pigweed; conditions: Postemergence, 0 to 100 scale (0 no effect, 100 complete control); for Plant response rating, Pigweed: 125 g ai/ha, visual injury approx. 10 days; for Pigweed plant response rating: 500 g ai/ha, visual injury vs untreated controls after approx. 10 days
Procedure, shortened: as §1

[13] = test system: ragweed (common ragweed, Ambrosia artemisiifolia); assay: Test A postemergence, ragweed; conditions: Postemergence, 0 to 100 scale (0 no effect, 100 complete control); for Plant response rating, Ragweed: 125 g ai/ha, visual injury approx. 10 days; for Ragweed plant response rating: 500 g ai/ha, visual injury vs untreated controls after approx. 10 days
Procedure, shortened: as §1

kochia (Bassia scoparia) [14] = assay: Test A postemergence, kochia; conditions: Postemergence, 0 to 100 scale (0 no effect, 100 complete control); for Plant response rating, Kochia: 125 g ai/ha, visual injury approx. 10 days; for Kochia plant response rating: 500 g ai/ha, visual injury vs untreated controls after approx. 10 days
Procedure, shortened: as §1

[15] = test system: Ryegrass, Italian (Italian ryegrass, Lolium multiflorum); assay: Test A postemergence, Ryegrass, Italian; conditions: Postemergence, 0 to 100 scale (0 no effect, 100 complete control); for Plant response rating, Ryegrass, Italian: 125 g ai/ha, visual injury approx. 10 days; for Ryegrass, Italian plant response rating: 500 g ai/ha, visual injury vs untreated controls after approx. 10 days
Procedure, shortened: as §1

Compound | Plant response rating, Foxtail, Giant [1] | Foxtail, Giant plant response rating [1] | Plant response rating, Barnyardgrass [2] | Barnyardgrass plant response rating [2] | Ryegrass, Italian plant response rating [3] | Plant response rating, Ryegrass, Italian [3] | Plant response rating, Galium [4] | Galium plant response rating [4] | Kochia plant response rating (kochia (Bassia scoparia) [5]) | Plant response rating, Kochia (kochia (Bassia scoparia) [5]) | Pigweed plant response rating [6] | Plant response rating, Pigweed [6] | Plant response rating, Corn (corn (Zea mays)) | Corn plant response rating (corn (Zea mays)) | Ragweed plant response rating [7] | Plant response rating, Ragweed [7] | Plant response rating, Blackgrass [8] | Blackgrass plant response rating [8] | Foxtail, Giant plant response rating [9] | Plant response rating, Foxtail, Giant [9] | further results
Cc1cc(C)c(N(S(=O)(=O)C(F)(F)F)S(=O)(=O)C(F)(F)F)cc1C1=NOC2CCCC12 (stereo not shown) [Compound 99] | 0 | 10 | 70 | 90 | 50 | 90 | 90 | 90 | 70 | 100 | 100 | 100 | 0 | 0 | 60 | 90 | 0 | 20 | 70 | 80 | Plant response rating, Wheat [10]: 0; Wheat plant response rating [10]: 50; Barnyardgrass plant response rating [11]: 90; Plant response rating, Barnyardgrass [11]: 100; Plant response rating, Pigweed [12]: 70; Pigweed plant response rating [12]: 100; Plant response rating, Ragweed [13]: 40; Ragweed plant response rating [13]: 80; Plant response rating, Kochia (kochia (Bassia scoparia) [14]): 40; Kochia plant response rating (kochia (Bassia scoparia) [14]): 90; Plant response rating, Ryegrass, Italian [15]: 0; Ryegrass, Italian plant response rating [15]: 60
COC1(OC)CCN(C(=O)c2cc(NS(=O)(=O)C(F)(F)F)c(C)cc2C)CC1 [Compound 101] | 0 | 80 | 80 | 90 | 80 | 100 | 80 | 90 | 60 | 90 | 90 | 90 | 20 | 30 | 60 | 80 | 20 | 20 | 90 | 100 | Plant response rating, Wheat [10]: 0; Wheat plant response rating [10]: 60; Barnyardgrass plant response rating [11]: 100; Plant response rating, Barnyardgrass [11]: 100; Plant response rating, Pigweed [12]: 70; Pigweed plant response rating [12]: 90; Plant response rating, Ragweed [13]: 50; Ragweed plant response rating [13]: 70; Plant response rating, Kochia (kochia (Bassia scoparia) [14]): 10; Kochia plant response rating (kochia (Bassia scoparia) [14]): 30; Plant response rating, Ryegrass, Italian [15]: 60; Ryegrass, Italian plant response rating [15]: 70
COCC1(COC)CC(c2cc(NS(=O)(=O)C(F)(F)F)c(C)cc2C)=NO1 [Compound 104] | 20 | 70 | 80 | 90 | 50 | 100 | 90 | 90 | 0 | 50 | 70 | 90 | 30 | 80 | 30 | 60 | 0 | 20 | 90 | 100 | Plant response rating, Wheat [10]: 20; Wheat plant response rating [10]: 60; Barnyardgrass plant response rating [11]: 90; Plant response rating, Barnyardgrass [11]: 100; Plant response rating, Pigweed [12]: 40; Pigweed plant response rating [12]: 80; Plant response rating, Ragweed [13]: 70; Ragweed plant response rating [13]: 90; Plant response rating, Kochia (kochia (Bassia scoparia) [14]): 30; Kochia plant response rating (kochia (Bassia scoparia) [14]): 40; Plant response rating, Ryegrass, Italian [15]: 10; Ryegrass, Italian plant response rating [15]: 40
Cc1cc(C)c(C(=O)N(C)CC2CC2)cc1NS(=O)(=O)C(F)(F)F [Compound 107] | 10 | 50 | 70 | 90 | 60 | 90 | 90 | 90 | 0 | 50 | 80 | 90 | 0 | 80 | 50 | 80 | 0 | 30 | 60 | 100 | Plant response rating, Wheat [10]: 0; Wheat plant response rating [10]: 40; Barnyardgrass plant response rating [11]: 90; Plant response rating, Barnyardgrass [11]: 100; Plant response rating, Pigweed [12]: 50; Pigweed plant response rating [12]: 60; Plant response rating, Ragweed [13]: 70; Ragweed plant response rating [13]: 90; Plant response rating, Kochia (kochia (Bassia scoparia) [14]): 20; Kochia plant response rating (kochia (Bassia scoparia) [14]): 40; Plant response rating, Ryegrass, Italian [15]: 0; Ryegrass, Italian plant response rating [15]: 30
Cc1c(NS(=O)(=O)C(F)(F)F)cc(C(=O)N2CCC(F)CC2)c(C)c1F [Compound 109] | 0 | 40 | 0 | 70 | 70 | 80 | 80 | 90 | 90 | 100 | 100 | 100 | 0 | 40 | 90 | 90 | 10 | 10 | 100 | 100 | Plant response rating, Wheat [10]: 30; Wheat plant response rating [10]: 70; Barnyardgrass plant response rating [11]: 90; Plant response rating, Barnyardgrass [11]: 100; Plant response rating, Pigweed [12]: 50; Pigweed plant response rating [12]: 80; Plant response rating, Ragweed [13]: 70; Ragweed plant response rating [13]: 80; Plant response rating, Kochia (kochia (Bassia scoparia) [14]): 10; Kochia plant response rating (kochia (Bassia scoparia) [14]): 40; Plant response rating, Ryegrass, Italian [15]: 40; Ryegrass, Italian plant response rating [15]: 60
